Source: patent publication EP4741427A1, “GLYCAN, PREPARATION METHOD THEREFOR AND USE THEREOF, AND ANTI-TUMOR DRUG” (Peking University, priority 2023, dated 2025)

Experiments:
[1] = system: Aspc-1; assay: CCK-8 proliferation inhibition of pancreatic cancer cells; assay type: cell-based; conditions: 72 h
Excerpt: (§1) Three pancreatic cancer cell lines (Aspc-1, Bxpc-3, Panc-1) and the hepatocyte cell line LO2 used in the experiments were provided by Peking University People's Hospital and the Institute of Materia Medica, Chinese Academy of Medical Sciences. The culture conditions for Aspc-1 and Bxpc-3 cells were RPMI 1640 medium (Gibco, Thermo Fisher Scientific, USA) supplemented with 10% fetal bovine serum (HyClone, Thermo Fisher Scientific, USA) and 1% penicillin/streptomycin (Life Technologies, Thermo Fisher Scientific, USA). The culture conditions for Panc-1 and LO2 cells were DMEM medium (Gibco, Thermo Fisher Scientific, USA) supplemented with 10% fetal bovine serum (HyClone, Thermo Fisher Scientific, USA) and 1% penicillin/streptomycin (Life Technologies, Thermo Fisher Scientific, USA). Cell culture was conducted at 37°C with adequate humidity and 5% CO2 concentration.
(§2) Three types of pancreatic cancer cells (Aspc-1, Bxpc-3, Panc-1) were seeded into 96-well plates at a density of 5×10^3 cells/well (100 µL). After the cells adhered, gemcitabine (50 µM), compound 2-11 (140-mer 2-11, 50 µM), 2-30 (70-mer 2-30, 50 µM), 2-31 (40-mer 2-31, 50 µM), 2-32 (30-mer 2-32, 50 µM), 2-33 (10-mer A 2-33, 50 µM), 2-34 (10-mer B 2-34, 50 µM), 2-35 (5-mer A 2-35, 50 µM), 2-36 (5-mer B 2-36, 50 µM), and 2-37 (5-mer C 2-37, 50 µM) were added, respectively. The cells were co-incubated for 72 h. Then, 10 µL of CCK-8 reagent was added to each well and incubated at 37°C for 2 h. After thorough mixing, the absorbance at 450 nm was measured by using a microplate reader. A cell survival rate was calculated by using the following formula: Cell survival rate(%) = (ODsample−OD_blank)/(OD_control−OD_blank) × 100%. [formula]
(§3) Three types of pancreatic cancer cells (Aspc-1, Bxpc-3, and Panc-1) were seeded into 96-well plates at a density of 5×10^3 cells/well (100 µL). After the cells adhered, different concentrations of compound 2-34 (3.125 µM, 6.25 µM, 12.5 µM, 25 µM, 50 µM, 100 µM) were added. The cells were co-incubated for 72 h. Then, 10 µL of CCK-8 reagent was added to each well and incubated at 37°C for 2 h. After thorough mixing, the absorbance at 450 nm was measured by using a microplate reader, and the cell survival rate was calculated.

[2] = system: Panc-1; assay: as above; assay type: cell-based; conditions: 72 h
Excerpt: as §1, §2, §3

[3] = system: Bxpc-3; assay: as above; assay type: cell-based; conditions: 72 h
Excerpt: as §1, §2, §3

[4] = system: LO2 hepatocytes; assay: CCK-8 cytotoxicity on hepatocytes; assay type: cell-based, human; conditions: concentration up to 100 µM, 72 h
Excerpt: as §1
LO2 hepatocytes were seeded into 96-well plates at a density of 5×10^3 cells/well (100 µL). After the cells adhered, different concentrations of compound 2-34 (3.125 µM, 6.25 µM, 12.5 µM, 25 µM, 50 µM, 100 µM) and the positive control drug gemcitabine (3.125 µM, 6.25 µM, 12.5 µM, 25 µM, 50 µM, 100 µM) were added, respectively. The cells were co-incubated for 72 h. […] After thorough mixing, the absorbance at 450 nm was measured by using a microplate reader, and the cell survival rate was calculated.

[5] = system: Panc-1 cells; assay: Apoptosis, Annexin V-FITC/PI double staining with flow cytometry; assay type: cell-based; conditions: 72 h
Experimental: Pancreatic cancer Panc-1 cells were seeded into 24-well plates at a density of 3×10^4 cells/well. After the cells adhered, different concentrations of compound 2-34 (25 µM, 50 µM, 100 µM) were added and co-incubated for 72 h. All cells were collected, washed 2 times with PBS, and resuspended in binding buffer (Beyotime, Shanghai, China). Then, 5 µL of Annexin V-FITC (fluorescein isothiocyanate) and 10 µL of PI (propidium iodide) dye were added in sequence, and the cells were stained in the dark for 20 min. The apoptosis rate was detected by using a flow cytometer (Beckman CytoFLEX), and the specific apoptosis ratio was analyzed by using CytoFLEX software.

[6] = system: Panc-1 cells; assay: Cell cycle, PI staining with flow cytometry; assay type: cell-based; conditions: 72 h
Experimental: Pancreatic cancer Panc-1 cells were seeded into 24-well plates at a density of 6×10^4 cells/well. After the cells adhered, different concentrations of compound 2-34 (25 µM, 50 µM, 100 µM) were added and co-incubated for 72 h. All cells were collected, washed 2 times with PBS, and fixated in 70% (volume fraction) ethanol overnight. The fixated cells were collected, washed 2 times with PBS, and stained with PI staining solution containing RNase (ribonuclease) in the dark for 30 min. The nucleic acid content in the cells was detected by using a flow cytometer, and the percentage of cells in each cycle phase was analyzed by using ModFit software.

| Molecule | inhibition at 50 µM ([1]; Homo sapiens, ASPC1, Aspc-1, 50 µM, read-out: inhibition rates) | inhibition at 50 µM ([2]; Homo sapiens, Panc-1, 50 µM, read-out: inhibition rates) | inhibition rates ([1]; Aspc-1, 50 µM) | proliferation inhibition, concentration dependence ([1]; Aspc-1, 3.125-100 µM) | inhibition rates ([3]; Bxpc-3, 50 µM) | proliferation inhibition, concentration dependence ([3]; Bxpc-3, 3.125-100 µM) | inhibition rates ([2]; Panc-1, 50 µM) | proliferation inhibition, concentration dependence ([2]; Panc-1, 3.125-100 µM) | cytotoxicity towards the growth of LO2 hepatocytes [4] | apoptosis rate ([5]; Panc-1, 25 µM) | apoptosis rate ([5]; Panc-1, 50 µM) | apoptosis rate ([5]; Panc-1, 100 µM) | number of cells in the G2 phase ([6]; Panc-1, 25 µM, 50 µM, 100 µM) | proportion of cells in the G1 phase ([6]; Panc-1, 25 µM) | proportion of cells in the S phase ([6]; Panc-1, 25 µM) | proportion of cells in the G1 phase ([6]; Panc-1, 50 µM) | proportion of cells in the S phase ([6]; Panc-1, 50 µM) | proportion of cells in the G1 phase ([6]; Panc-1, 100 µM) | proportion of cells in the S phase ([6]; Panc-1, 100 µM) |
| --- | --- | --- | --- | --- | --- | --- | --- | --- | --- | --- | --- | --- | --- | --- | --- | --- | --- | --- | --- |
| Nc1ccn([C@@H]2O[C@H](CO)[C@@H](O)C2(F)F)c(=O)n1 [gemcitabine, reference compound] | 61.4% | 23.2% | – | – | – | – | – | – | – | – | – | – | – | – | – | – | – | – | – |
| Octylβ-D-galactopyranosyl-(1→6)-β-D-galactopyranosyl-(1→6)-β-D-galactopyranosyl-( 1→6)-{α-L-arabinofuranosyl-(1→5)-α-L-arabinofuranosyl-(1→5)-α-L-arabinofuransyl-(1→5)-[ β-D-galactopyranosyl-(1→3)]-α-L-arabinofuranosyl-(1→3)-β-D-galactopyranosyl-(1→3)}-β-D-galactopyranoside [compound 2-34] | – | – | 74.9% | significant concentration dependence | 29.5% | significant concentration dependence | 72.1% | significant concentration dependence | no cytotoxicity | 31.99% | 31.92% | 67.59% | remains relatively stable with minor changes | 51.33% | 22.19% | 46.99% | 27.66% | 42.43% | 36.29% |
